Experimental data from patent US5281580A, “Calcitonin-containing emulsion for nasal administration” (Toyo Jozo Company, Ltd., priority 1990, dated 1994).

How the values were obtained:
Type in all cases: physicochemical
[1] = Emulsifiability and stability of emulsions: state of dispersion observed (Example 1); conditions: for Just after preparation (state of dispersion): 0.1 g azacycloalkane derivative + 5.0 ml; for After 3 days standing (state of dispersion): room temperature
Procedure: Using 1-[2-(decylthio)ethyl]azacyclopentan-2-one chosen from the azacycloalkane derivatives, and three emulsifying agents as follows, emulsifiabilities and stabilities of the emulsions were examined:
(§1) […] The mixture was agitated under 15,000 rpm for 1 minute by Biomixer (NIHON SEIKI SEISAKUSHO) to prepare each emulsion. The state of dispersion just after the preparation and after 3 days standing at room temperature was observed. The turbidity just after the preparation was measured by extinction at 650 nm, and used as the index of emulsifiability.

[2] = Turbidity just after preparation by extinction, index of emulsifiability (Example 1)
Procedure: as §1

[3] = Stabilities of emulsions relating to added concentration of the azacycloalkane derivative (Example 2); conditions: for Observation after 3 days standing / Observation after 7 days standing: room temperature
Procedure: Each 5 ml of a 1% (W/V) solution preliminarily prepared by dissolving dispotassium glycyrrhizate in distilled water was poured in each of 8 10-ml-test tubes, and thereto was added 1[2-(decylthio)ethyl] azacyclopentan-2-one chosen from the azacycloalkane derivatives so as to make a concentration ranging from 0 to 10%. Then, the mixture was agitated for 1 minute using Biomixer (NIHON SEIKI SEISAKUSHO) (15,000 rpm), to prepare each emulsion. The state of dispersion just after the preparation,or after 3 days or 7 days standing at room temperature was observed.

[4] = concentration 1.0% in 1% (W/V) dipotassium glycyrrhizate
[5] = concentration 2.0% in 1% (W/V) dipotassium glycyrrhizate

With `CC1(C)[C@@H](O[C@H]2O[C@H](C(=O)[O-])[C@@H](O)[C@H](O)[C@H]2O[C@@H]2O[C@H](C(=O)[O-])[C@@H](O)[C@H](O)[C@H]2O)CC[C@]2(C)[C@H]3C(=O)C=C4[C@@H]5C[C@@](C)(C(=O)O)CC[C@]5(C)CC[C@@]4(C)[C@]3(C)CC[C@@H]12.[K+].[K+]` [dipotassium glycyrrhizate] the “Just after preparation (state of dispersion)” value (from here on “Just … (state of dispersion)”) ([1]; emulsifying agent 0.5%) was “White clear”, the “After 3 days standing (state of dispersion)” value ([1]; emulsifying agent 0.5%) was “White clear” and the “Just … (state of dispersion)” value ([1]; emulsifying agent 1.0%) was “White clear”. For the same compound, the “After 3 days standing (state of dispersion)” value ([1]; emulsifying agent 1.0%) was “White clear”, the “Just … (state of dispersion)” value ([1]; emulsifying agent 2.0%) was “White clear” and the “After 3 days standing (state of dispersion)” value ([1]; emulsifying agent 2.0%) was “White clear”. The “Just … (state of dispersion)” value ([1]; emulsifying agent 3.0%) was “White clear”, the “After 3 days standing (state of dispersion)” value ([1]; emulsifying agent 3.0%) was “White clear” and the “emulsification (in words)” value ([1]; emulsifying agent at 0.1-5%) was “good emulsification”. The “dissolution (in words)” value ([1]; emulsifying agent at 4-5%) was “full dissolution”, the “Turbidity (650 nm)” value ([2]; emulsifying agent 0.1%) was 1.284 and the “Turbidity (650 nm)” value ([2]; emulsifying agent 0.5%) was 0.459. The “Turbidity (650 nm)” value ([2]; emulsifying agent 1.0%) was 0.437, the “Turbidity (650 nm)” value ([2]; emulsifying agent 2.0%) was 0.405 and the “Turbidity (650 nm)” value ([2]; emulsifying agent 3.0%) was 0.346. The “Turbidity (650 nm)” value ([2]; emulsifying agent 4.0%) was 0.006 and the “Turbidity (650 nm)” value ([2]; emulsifying agent 5.0%) was 0.006.

With `CCCCCCCCCCSCCN1CCCC1=O` [1-[2-(decylthio)ethyl]azacyclopentan-2-one] the “emulsification and stability (in words)” value ([3]; concentration 0.01% to 10%, using 1% dipotassium glycyrrhizate) was “exhibited good emulsification and gave a stable emulsion”, the “Observation just after preparation” value [3, 4] was “White clear” and the “Observation after 3 days standing” value [3, 4] was “White clear”. For the same compound, the “Observation after 7 days standing” value [3, 4] was “White clear”, the “Observation just after preparation” value [3, 5] was “White clear” and the “Observation after 3 days standing” value [3, 5] was “White clear”. The “Observation after 7 days standing” value [3, 5] was “White clear”.
